Measured values as given in ChEMBL document CHEMBL1914304 (J Med Chem, 2011).

Columns and labels:
HEK293 = test: Cytotoxicity against human HEK293 cells after 72 hrs by luminescence assay; format: cell-based; details: hek293, 72 h
Raji = test: Cytotoxicity against human Raji cells after 72 hrs by luminescence assay; format: cell-based
HepG2 = test: Cytotoxicity against human HepG2 cells after 72 hrs by luminescence assay; format: cell-based; details: hepg2, 72 h
BJ = test: Cytotoxicity against human BJ cells after 72 hrs by luminescence assay; format: cell-based
[1] = Selectivity ratio of EC50 for human HepG2 cells to EC50 for Plasmodium falciparum

Row | SMILES | Activity (HEK293) | Activity (Raji) | Activity (HepG2) | Activity (BJ) | selectivity ratio [1]
1 | COc1cccc(N(CC(O)COc2ccc(F)cc2C(=O)CCc2ccc(F)cc2)c2ccccc2)c1.Cl (racemic) | Non-toxic | Non-toxic | Non-toxic | Non-toxic | > 10
2 | CN(CCc1ccccc1)CC(O)COc1ccc(F)cc1C(=O)CCc1ccc(F)cc1.Cl (racemic) | Non-toxic | Non-toxic | Non-toxic | Non-toxic | > 10
3 | CCN(CC)CC(O)COc1ccc(F)cc1C(=O)CCc1ccc(F)cc1.Cl (racemic) | Non-toxic | Non-toxic | Non-toxic | Non-toxic | > 10
4 | CCCN(CCC)CC(O)COc1ccc(F)cc1C(=O)CCc1ccc(F)cc1.Cl (racemic) | Non-toxic | Non-toxic | Non-toxic | Non-toxic | > 10
5 | CCCCN(CCCC)CC(O)COc1ccc(F)cc1C(=O)CCc1ccc(F)cc1.Cl (racemic) | Non-toxic | Non-toxic | Non-toxic | Non-toxic | > 10
6 | CC(C)N(CC(O)COc1ccc(F)cc1C(=O)CCc1ccc(F)cc1)c1ccccc1.Cl (racemic) | Non-toxic | Non-toxic | Non-toxic | Non-toxic | > 10
7 | Cl.O=C(CCc1ccc(F)cc1)c1cc(F)ccc1OCC(O)CN(C1CCCCC1)C1CCCCC1 (racemic) | Non-toxic | Non-toxic | Non-toxic | Non-toxic | > 10
8 | Cl.O=C(CCc1ccccc1)c1ccccc1OCC(O)CN1CCCCC1 (racemic) | Non-toxic | Non-toxic | Non-toxic | Non-toxic | > 10
9 | Cl.O=C(CCc1ccccc1)c1ccccc1OCC(O)CN1CCC(Cc2ccccc2)CC1 (racemic) | Non-toxic | Non-toxic | Non-toxic | Non-toxic | > 10
10 | Cl.O=C(CCc1ccccc1)c1ccccc1OCC(O)CN1CCC(c2ccc(Cl)cc2)CC1 (racemic) | Non-toxic | Non-toxic | Non-toxic | Non-toxic | > 10
11 | Cl.O=C(CCc1ccccc1)c1ccccc1OCC(O)CN1CCC(O)(Cc2ccccc2)CC1 (racemic) | Non-toxic | Non-toxic | Non-toxic | Non-toxic | > 10
12 | Cl.O=C(CCc1ccccc1)c1ccccc1OCC(O)CN1CCC(O)(c2ccc(Cl)cc2)CC1 (racemic) | Non-toxic | Non-toxic | Non-toxic | Non-toxic | > 10
13 | Cl.O=C(CCc1ccccc1)c1ccccc1OCC(O)CN1CCN(c2ccccc2)CC1 (racemic) | Non-toxic | Non-toxic | Non-toxic | Non-toxic | > 10
14 | Cl.O=C(CCc1ccccc1)c1ccccc1OCC(O)CN1CCN(Cc2ccccc2)CC1 (racemic) | Non-toxic | Non-toxic | Non-toxic | Non-toxic | > 10
15 | Cc1ccccc1N1CCN(CC(O)COc2ccccc2C(=O)CCc2ccccc2)CC1.Cl (racemic) | Non-toxic | Non-toxic | Non-toxic | Non-toxic | > 10
16 | Cc1cccc(N2CCN(CC(O)COc3ccccc3C(=O)CCc3ccccc3)CC2)c1.Cl (racemic) | Non-toxic | Non-toxic | Non-toxic | Non-toxic | > 10
17 | COc1ccccc1N1CCN(CC(O)COc2ccccc2C(=O)CCc2ccccc2)CC1.Cl (racemic) | Non-toxic | Non-toxic | Non-toxic | Non-toxic | > 10
18 | COc1cccc(N2CCN(CC(O)COc3ccccc3C(=O)CCc3ccccc3)CC2)c1.Cl (racemic) | Non-toxic | Non-toxic | Non-toxic | Non-toxic | > 10
19 | COc1ccc(N2CCN(CC(O)COc3ccccc3C(=O)CCc3ccccc3)CC2)cc1.Cl (racemic) | Non-toxic | Non-toxic | Non-toxic | Non-toxic | > 10
20 | Cl.O=C(CCc1ccccc1)c1ccccc1OCC(O)CN1CCN(c2ccccc2Cl)CC1 (racemic) | Non-toxic | Non-toxic | Non-toxic | Non-toxic | > 10
21 | Cl.O=C(CCc1ccccc1)c1ccccc1OCC(O)CN1CCN(c2ccc(Cl)cc2)CC1 (racemic) | Non-toxic | Non-toxic | Non-toxic | Non-toxic | > 10
22 | Cl.O=C(CCc1ccccc1)c1ccccc1OCC(O)CN1CCN(c2ccc(Cl)c(Cl)c2)CC1 (racemic) | Non-toxic | Non-toxic | Non-toxic | Non-toxic | > 10
23 | Cl.O=C(CCc1ccccc1)c1ccccc1OCC(O)CN1CCN(c2ccccc2F)CC1 (racemic) | Non-toxic | Non-toxic | Non-toxic | Non-toxic | > 10
24 | Cl.O=C(CCc1ccccc1)c1ccccc1OCC(O)CN1CCN(c2ccc(F)cc2)CC1 (racemic) | Non-toxic | Non-toxic | Non-toxic | Non-toxic | > 10
25 | Cl.O=C(CCc1ccccc1)c1ccccc1OCC(O)CN1CCN(c2ccc([N+](=O)[O-])cc2)CC1 (racemic) | Non-toxic | Non-toxic | Non-toxic | Non-toxic | > 10
26 | Cl.Nc1ccc(N2CCN(CC(O)COc3ccccc3C(=O)CCc3ccccc3)CC2)cc1 (racemic) | Non-toxic | Non-toxic | Non-toxic | Non-toxic | > 10
27 | Cl.O=C(CCc1ccccc1)c1ccccc1OCC(O)CN1CCN(c2ccc(O)cc2)CC1 (racemic) | Non-toxic | Non-toxic | Non-toxic | Non-toxic | > 10
28 | Cl.O=C(CCc1ccccc1)c1ccccc1OCC(O)CN1CCN(c2ccc(C(F)(F)F)cc2)CC1 (racemic) | Non-toxic | Non-toxic | Non-toxic | Non-toxic | > 10
